One assay addresses T1, MAT2A homodimer (Homo sapiens, UniProt P31153).
T1 construct: inferred from Ni sepharose purification with imidazole elution; made in house; host or cells: Sf9 insect cells, baculovirus (Bac to Bac, pFASTBAC1)
The experiment in a line: MAT2A inhibition (biochemical, liberated phosphate, PiColorLock Gold). Particulars: recombinant MAT2A homodimer; IC50 bin with Max Inh.; read-out: Enzyme Inhibition Bin. An outline of the steps:
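Enzyme at 4 μg/mL and compound equilibrated 60 min at 25 °C, then 60 min reaction after adding substrate mix (500 μM ATP, 400 μM methionine). Released phosphate quantified by colorimetric kit against a phosphate standard curve to give IC50. Secondary format used 1 μg/mL enzyme with 5 h incubation.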

A further assay concerns HCT116 MTAP−/−. The experiment in a line: Inhibition of cellular proliferation, 4 days, Cell Titer Glo, HCT116 MTAP−/−. The class given is cell-based. Particulars: Homo sapiens, HCT-116, 96 h, IC50 bin with Max Inh., read-out: 4 Day Relative Growth Inhibition (MTAP −/−). An outline of the steps: (§1)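 IC50 derived from blank-corrected ATP luminescence (Cell Titer Glo) expressed relative to within-plate 0.2% DMSO wells. Compound, as a 10-point 3-fold series, was added 24 h after seeding the MTAP+/+ or MTAP−/− HCT116 cells and incubated 4 days at 37° C./5% CO2.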
For orientation: ATP-based viability assays read luminescence as a measure of living cells.

The test system of assay [1] is SAM in HCT116 human colon carcinoma cell line with MTAP gene deleted (MTAP −/−). The experiment in a line: Cellular assay of target engagement (SAM), LC-MS/MS, 72 hrs. Format: cell-based. Particulars: HCT-116, IC50 bin with Max Inh., read-out: Cell 72 h SAM Inhibition (MTAP −/−). An outline of the steps:
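SAM levels were quantified by LC-MS/MS (m/z 399.2→250.1, d3-SAM internal standard) from cold methanol/acetic acid extracts, yielding IC50. Compound was applied as a 10-point 3-fold series for 72 hrs to MTAP −/− HCT116 cells seeded 24 hours before.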

For another assay, the system named is HCT116 MTAP+/+. The experiment in a line: Inhibition of cellular proliferation, 4 days, Cell Titer Glo, HCT116 MTAP+/+. The class given is cell-based. Particulars: Homo sapiens, HCT-116, 96 h, IC50 bin with Max Inh., read-out: 4 Day Relative Growth Inhibition (MTAP +/+). An outline of the steps:
as §1

T1 sequence (P31153 whole entry): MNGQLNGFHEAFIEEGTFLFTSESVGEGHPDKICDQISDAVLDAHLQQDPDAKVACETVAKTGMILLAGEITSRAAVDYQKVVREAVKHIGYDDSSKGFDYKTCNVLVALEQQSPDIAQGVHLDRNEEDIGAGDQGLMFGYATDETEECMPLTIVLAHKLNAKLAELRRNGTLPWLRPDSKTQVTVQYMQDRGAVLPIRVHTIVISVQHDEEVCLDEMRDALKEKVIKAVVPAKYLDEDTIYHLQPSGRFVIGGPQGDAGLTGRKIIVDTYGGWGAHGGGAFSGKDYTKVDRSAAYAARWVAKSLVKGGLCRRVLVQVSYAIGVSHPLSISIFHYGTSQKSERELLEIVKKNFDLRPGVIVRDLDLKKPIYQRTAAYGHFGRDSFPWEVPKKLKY

Take `CCc1cn(CC2CC2)c2c(-c3ccc(C4CC4)nc3)c(=O)n(-c3ccc4nn(C)cc4c3)nc12` [Example 247, 5-(cyclopropylmethyl)-4-(6-cyclopropylpyridin-3-yl)-7-ethyl-2-(2-methyl-2H-indazol-5-yl)-2,5-dihydro-3H-pyrrolo[3,2-c]pyridazin-3-one]: the IC50 at MAT2A homodimer was < 100 nM; in the assay on HCT116 MTAP−/− it was < 100 nM; in assay [1], < 100 nM; in the assay with HCT116 MTAP+/+, > 1000 nM.
On to `Cn1cc2cc(-n3nc4c(C#N)cn(CC5CC5)c4c(-c4ccc(C(F)F)nc4)c3=O)ccc2n1` [Example 143, 5-(cyclopropylmethyl)-4-(6-(difluoromethyl)pyridin-3-yl)-2-(2-methyl-2H-indazol-5-yl)-3-oxo-3,5-dihydro-2H-pyrrolo[3,2-c]pyridazine-7-carbonitrile], for which the IC50 at MAT2A homodimer is < 100 nM; in the assay on HCT116 MTAP−/−, < 100 nM; in assay [1], < 100 nM; in the assay on HCT116 MTAP+/+ it was 100 to 1000 nM.
Consider `Cc1ccc(-c2c(=O)n(-c3ccc4nn(C)cc4c3)nc3cnn(CC4CC4)c23)cn1` [Example 222, 1-(cyclopropylmethyl)-5-(2-methyl-2H-indazol-5-yl)-7-(6-methylpyridin-3-yl)-1,5-dihydro-6H-pyrazolo[4,3-c]pyridazin-6-one], for which the IC50 on MAT2A homodimer is < 100 nM; in the assay on HCT116 MTAP−/−, 100 to 1000 nM; in assay [1], 100 to 1000 nM; in the assay with HCT116 MTAP+/+, > 1000 nM.
`Cn1cc(-n2nc3ccn(CC4CC4)c3c(-c3ccc(OC(F)F)cc3)c2=O)ccc1=O` [Example 223, 5-(cyclopropylmethyl)-4-(4-(difluoromethoxy)phenyl)-2-(1-methyl-6-oxo-1,6-dihydropyridin-3-yl)-2,5-dihydro-3H-pyrrolo[3,2-c]pyridazin-3-one]: the IC50 at MAT2A homodimer is < 100 nM; with HCT116 MTAP−/−, 100 to 1000 nM; in assay [1] it was < 100 nM; in the assay with HCT116 MTAP+/+, 100 to 1000 nM.
For `[2H]C([2H])([2H])Oc1ccc(-c2c(=O)n(-c3ccc4nn(C)cc4c3)nc3c2n(CC2CC2)c(=O)n3C)cc1` [Example 201, 5-(cyclopropylmethyl)-4-(4-(methoxy-d3)phenyl)-7-methyl-2-(2-methyl-2H-indazol-5-yl)-2,7-dihydro-3H-imidazo[4,5-c]pyridazine-3,6(5H)-dione], the IC50 was < 100 nM on MAT2A homodimer, < 100 nM in the assay on HCT116 MTAP−/−, < 100 nM in assay [1] and 100 to 1000 nM in the assay with HCT116 MTAP+/+.
For `Cn1cc2cc(-n3nc4ncn(CC5CC5)c4c(-c4ccc(OC(F)F)nc4)c3=O)ccc2n1` [Example 189, 5-(cyclopropylmethyl)-4-(6-(difluoromethoxy)pyridin-3-yl)-2-(2-methyl-2H-indazol-5-yl)-2,5-dihydro-3H-imidazo[4,5-c]pyridazin-3-one], the IC50 at MAT2A homodimer was < 100 nM; in the assay with HCT116 MTAP−/−, 100 to 1000 nM; in assay [1], 100 to 1000 nM; in the assay on HCT116 MTAP+/+ it was > 1000 nM.
With `Cn1cc2cc(-n3nc4c(C#N)cn(CC5CC5)c4c(-c4ccc([C@H]5CC5(F)F)nc4)c3=O)ccc2n1` [Example 253, (R)-5-(cyclopropylmethyl)-4-(6-(2,2-difluorocyclopropyl)pyridin-3-yl)-2-(2-methyl-2H-indazol-5-yl)-3-oxo-3,5-dihydro-2H-pyrrolo[3,2-c]pyridazine-7-carbonitrile], the IC50 on MAT2A homodimer is < 100 nM; in the assay with HCT116 MTAP−/−, < 100 nM; in assay [1] it was 100 to 1000 nM; in the assay with HCT116 MTAP+/+, > 1000 nM.
For `Cn1cc2cc(-n3nc4ccn(CC5CC5)c4c(-c4ccc(C#N)nc4)c3=O)ccc2n1` [Example 153, 5-(5-(cyclopropylmethyl)-2-(2-methyl-2H-indazol-5-yl)-3-oxo-3,5-dihydro-2H-pyrrolo[3,2-c]pyridazin-4-yl)picolinonitrile], the IC50 is 100 to 1000 nM at MAT2A homodimer, > 1000 nM in the assay with HCT116 MTAP−/−, 100 to 1000 nM in assay [1] and > 1000 nM in the assay with HCT116 MTAP+/+.
`Cc1c(C#N)c2nn(-c3ccc4nn(C)cc4c3)c(=O)c(-c3ccc(OC(F)F)cc3)c2n1CC1CC1` [Example 264, 5-(cyclopropylmethyl)-4-(4-(difluoromethoxy)phenyl)-6-methyl-2-(2-methyl-2H-indazol-5-yl)-3-oxo-3,5-dihydro-2H-pyrrolo[3,2-c]pyridazine-7-carbonitrile]: the IC50 at MAT2A homodimer was < 100 nM; with HCT116 MTAP−/−, < 100 nM; in assay [1] it was < 100 nM; with HCT116 MTAP+/+ it was > 1000 nM.
For the compound `Cn1cc2cc(-n3nc4c(C(=O)O)cn(CC5CC5)c4c(-c4ccc(C5CC5)nc4)c3=O)ccc2n1` [Example 163, 5-(cyclopropylmethyl)-4-(6-cyclopropylpyridin-3-yl)-2-(2-methyl-2H-indazol-5-yl)-3-oxo-3,5-dihydro-2H-pyrrolo[3,2-c]pyridazine-7-carboxylic acid], the IC50 at MAT2A homodimer is < 1000 nM; in the assay with HCT116 MTAP−/−, 100 to 1000 nM; in assay [1], > 1000 nM; with HCT116 MTAP+/+, > 1000 nM.
Turning to `Cn1cc2cc(-n3nc4ncn(CC5CC5)c4c(-c4ccc(Cl)cc4)c3=O)ccc2n1` [Example 188, 4-(4-chlorophenyl)-5-(cyclopropylmethyl)-2-(2-methyl-2H-indazol-5-yl)-2,5-dihydro-3H-imidazo[4,5-c]pyridazin-3-one], the IC50 on MAT2A homodimer was < 100 nM; in the assay with HCT116 MTAP−/− it was < 100 nM; in assay [1] it was < 100 nM; in the assay on HCT116 MTAP+/+, 100 to 1000 nM.
For the compound `Cc1nn(CC2CC2)c2c(-c3ccc(C4CC4)cc3)c(=O)n(-c3ccc4nn(C)cc4c3)nc12` [Example 213, 1-(cyclopropylmethyl)-7-(4-cyclopropylphenyl)-3-methyl-5-(2-methyl-2H-indazol-5-yl)-1,5-dihydro-6H-pyrazolo[4,3-c]pyridazin-6-one], the IC50 at MAT2A homodimer is < 100 nM; in the assay with HCT116 MTAP−/− it was < 100 nM; in assay [1], < 100 nM; with HCT116 MTAP+/+ it was > 1000 nM.
`Cn1cc2cc(-n3nc4c(C#CC(F)(F)F)cn(CC5CC5)c4c(-c4ccc(C5CC5)nc4)c3=O)ccc2n1` [Example 245, 5-(cyclopropylmethyl)-4-(6-cyclopropylpyridin-3-yl)-2-(2-methyl-2H-indazol-5-yl)-7-(3,3,3-trifluoroprop-1-yn-1-yl)-2,5-dihydro-3H-pyrrolo[3,2-c]pyridazin-3-one]: the IC50 is < 100 nM on MAT2A homodimer, 100 to 1000 nM in the assay on HCT116 MTAP−/−, > 1000 nM in assay [1] and > 1000 nM in the assay with HCT116 MTAP+/+.
Consider `CNC(=O)c1cn(CC2CC2)c2c(-c3ccc(C4CC4)cc3)c(=O)n(-c3ccc4nn(C)cc4c3)nc12` [Example 167, 5-(cyclopropylmethyl)-4-(4-cyclopropylphenyl)-N-methyl-2-(2-methyl-2H-indazol-5-yl)-3-oxo-3,5-dihydro-2H-pyrrolo[3,2-c]pyridazine-7-carboxamide], for which the IC50 (on MAT2A homodimer; with HCT116 MTAP−/−; in assay [1]; with HCT116 MTAP+/+) was < 100 nM each time.
With `Cn1cc2cc(-n3nc4ccn(CC5CC5)c4c(-c4ccc(C5CC5)cc4)c3=O)ccc2n1` [Example 150, 5-(cyclopropylmethyl)-4-(4-cyclopropylphenyl)-2-(2-methyl-2H-indazol-5-yl)-2,5-dihydro-3H-pyrrolo[3,2-c]pyridazin-3-one], the IC50 was < 100 nM on MAT2A homodimer, < 100 nM in the assay with HCT116 MTAP−/−, < 100 nM in assay [1] and > 1000 nM in the assay on HCT116 MTAP+/+.

Source of the values: patent US20220169654A1, “New Organic Compounds” (Servier Pharmaceuticals LLC, priority 2020, published 2022).
